Results reported in US4702863A, “Indoaniline and indophenol compounds, a process for their preparation, dyeing compositions containing them and a hair-dyeing process” (L'Oreal, priority 1983, dated 1987).

Assays:
Salmonella Typhimurium [1] = assay: Ames test on Salmonella Typhimurium, with or without an S9 mix activated with Arochlor; assay type: cell-based; conditions: strains TA 100, TA 98 and TA 1538; with or without an S9 mix (Arochlor activation)
Text: Compounds of formula (I), in hair-dyeing, are substantially innocuous.

Salmonella Typhimurium [2] = conditions: Selects-Proton Magnetic Resonance, page 1, volume 18, 1981, number 95: 75096 f; cited from earlier work

Compound | mutagenicity in the Ames test (Salmonella Typhimurium [1]) | mutagenic action disclosed in Chemical Abstracts (Salmonella Typhimurium [2])
COC1=CC(=Nc2ccc(N)cc2)C(N)=CC1=O [[(4'-amino)phenyl]-2-amino-5-methoxy-1,4-benzoquinoneimine] | highly mutagenic | 
COC1=CC(=Nc2ccc(N)c(C)c2)C(N)=CC1=O [[(4'-amino-3'-methyl)phenyl]-2-amino-5-methoxy-1,4-benzoquinoneimine] | highly mutagenic | highly mutagenic
